Tests used:
[1] = system: EB virus, human-cytomegalovirus, HSV 1, 2, 3, 6, 7, 8; assay: DNA virus sequence enrichment analysis of nasal scraping cells; type: in vivo; conditions: GCV effective group
Method: (§1) The scraped mucosal epithelial cells are placed in a TRIzol™ reagent (Invitrogen™) and stored in liquid nitrogen for processing. Library preparation and high-throughput sequencing, data analysis, ribonucleic acid (RNA) sequence and deoxyribonucleic acid (DNA) virus sequence enrichment analysis are performed by Seqhealth Technology Co., Ltd. (China; wuhan). Sample quality analysis is performed by Nanodrop™ OneC spectrophotometer to detect expression at A260 and A280. Qualified samples are finally quantified by QubitR®3.0 fluorometer and Qubit™ RNA broad-range (BR) Assay kits. The original data is first filtered by Trimomatic (Version 0.36). Counting by FeatureCounts, and then calculate reads per kilobase of exon model per million mapped reads (RPKM). Differentially expressed genes between groups are identified using an edgeR package (Version 3.12.1). In analysis, P value<0.05 and fold change (FC) higher than 2 are considered to be significant differences in gene expression between groups.

[2] = system: patients with the intractable AR; assay: Interventional non-randomized cohort study of GCV for intractable AR: clinical symptom scores (VAS, ARCT, TNSS); type: in vivo, human; conditions: for TNSS after GCV treatment / rhinocnesmus score after GCV treatment / sneezing score after GCV treatment / rhinocleisis score after GCV treatment / rhinorrhea score after GCV treatment / ARCT after GCV treatment / VAS after GCV treatment: 14 days; for ARCT after GCV then routine anti-allergic medicines / TNSS after GCV then routine anti-allergic medicines / VAS after GCV then routine anti-allergic medicines / rhinocleisis score after GCV then routine anti-allergic medicines / rhinocnesmus score after GCV then routine anti-allergic medicines / rhinorrhea score after GCV then routine anti-allergic medicines / sneezing score after GCV then routine anti-allergic medicines: then routine anti-allergic medicines 14 days
Description: All patients are recruited from outpatient department of otolaryngology, the patients with AR complain of poor efficacy of routine anti-allergic medicines (nasal glucocorticoid sprays, oral antihistamines, nasal antihistamine sprays and oral leukotriene receptor antagonists). The inclusion and exclusion criteria of recruiting are as follows.
The exclusion criteria: (1) patients have viral/bacterial infection symptoms, fevers and/or other systemic manifestations in the past 2 weeks; (2) patients have other nasal diseases, such as nasal polyps or nasal tumors; (3) patients have a history of nasal surgery in the past 6 months; (4) patients are allergic to the GCV; (5) patients are pregnant women and patients are preparing for pregnancy; (6) the patients have severe neutropenia (absolute neutrophil count<0.5×10^9 per liter) or severe thrombocytopenia (platelet count<2.5×10^10 per liter).
An interventional non-randomized cohort study is conducted. Selected patients are treated with the routine anti-allergic medicines for 2 weeks to exclude the illusion of poor efficacy due to non-standard medication (combined use of nasal spray hormones and oral antihistamines to exclude treatment, and the selected patients are switched to with another brand of similar medicines if the selected patients have previously used the above medicines but no effect).
The selected patients are grouped according to responses to the routine anti-allergic medicines. If the routine anti-allergic medicines treatments are effective, the selected patients are classified as a common AR group; if ineffective, the selected patients are defined as intractable AR patients. The intractable AR patients are treated with the GCV for 2 weeks (oral, 500 milligrams per time (mg/time) twice a day for the patients≥14 years old; 250 mg/time twice a day for the patients<14 years old). If the GCV treatments are ineffective, the patients are classified as a GCV ineffective group; if effective, the patients are classified as GCV effective group. After 2 weeks of the GCV treatment, the patients in the GCV effective group, if total nasal symptom score (TNSS)≥4 or visual analogue scale (VAS)≥3 centimeters (cm) after the GCV treatment, […], conversely, the GCV treatment ends. The nasal symptoms are evaluated at each follow-up. In this situation, nasal secretion smears, nasal secretions, nasal scraping epithelial cells and peripheral blood are collected.
The visual analogue scale (VAS): the severity of all comprehensive symptoms is assessed by the VAS, ranging from 0 (no symptoms) to 10 centimeters (most severe and imaginable symptoms). Allergic rhinitis and its impact on asthma (ARIA) 2008 guideline classification: “mild” AR=0-3 centimeters, “moderate” AR=3.1-7 centimeters, “severe” AR=7.1-10 centimeters.
Allergic rhinitis control test (ARCT) is a self-administered questionnaire on AR control verified by Demoly et al. It consists of five questions with a score of 1-5 points for each question scored and a total score of 5-25 points. The intractable AR is defined as patients with ARCT score<20 points after 2 weeks of treatment.
Nasal symptom score: rhinocleisis, rhinocnesmus, sneezing, rhinorrhea are scored separately. No symptoms=0; mild (mild symptoms, easy to tolerate)=1; moderate (obvious symptoms, annoying, but tolerable)=2; severe (symptoms are not tolerable, affecting daily life or sleep)=3. The total nasal symptom score (TNSS) is the sum of all nasal symptom scores, ranging from 0 to 12.

nasal scraping cells = assay: Transcriptome sequencing (RNA-seq) of nasal scraping cells; type: in vivo, human
Method: as §1

[3] = Case 1, GCV 250 mg/time twice a day, before 1
[4] = Case 1, GCV 250 mg/time twice a day, before 3
[5] = Case 2, GCV 500 mg/time twice a day, before 2
[6] = Case 2, GCV 500 mg/time twice a day, before 7
[7] = Case 2, GCV 14 days, then nasal spray hormone plus oral antihistamines 14 days
[8] = Case 3, GCV 250 mg/time twice a day, before 3
[9] = Case 4, GCV 500 mg/time twice a day, before 1
[10] = Case 5, GCV 500 mg/time twice a day, before 3
[11] = GCV effective group n=6, before vs after, P<0.05 and FC>2
[12] = GCV effective group n=6, nasal scraping cells

Nc1nc(O)c2ncn(COC(CO)CO)c2n1 [GCV, Ganciclovir]
enrichment of genes of EB virus, human-cytomegalovirus, HSV 1, 2, 3, 6, 7, 8 before and after GCV treatment (FIG. 3B) [1]: no statistical difference
TNSS after GCV treatment ([2]; Case 1 (person one), GCV 250 mg/time twice a day, before 8): 3 points
rhinocnesmus score after GCV treatment [2, 3]: 1 points
sneezing score after GCV treatment [2, 3]: 0 points
rhinocleisis score after GCV treatment [2, 4]: 1 points
rhinorrhea score after GCV treatment [2, 4]: 1 points
ARCT after GCV treatment ([2]; Case 1, GCV 250 mg/time twice a day, before 5): 21 points
VAS after GCV treatment ([2]; Case 1, GCV 250 mg/time twice a day, before 8): 4.5 cm
ARCT after GCV then routine anti-allergic medicines ([2]; Case 1, GCV 14 days): 24 points
TNSS after GCV then routine anti-allergic medicines ([2]; Case 1, GCV 14 days): 2 points
VAS after GCV then routine anti-allergic medicines ([2]; Case 1, GCV 14 days): 2.5 cm
rhinocleisis score after GCV then routine anti-allergic medicines ([2]; Case 1, GCV 14 days): 1 points
rhinocnesmus score after GCV then routine anti-allergic medicines ([2]; Case 1, GCV 14 days): 0 points
rhinorrhea score after GCV then routine anti-allergic medicines ([2]; Case 1, GCV 14 days): 1 points
sneezing score after GCV then routine anti-allergic medicines ([2]; Case 1, GCV 14 days): 0 points
rhinocleisis score after GCV treatment [2, 5]: 2 points
rhinocnesmus score after GCV treatment [2, 5]: 2 points
rhinorrhea score after GCV treatment [2, 5]: 0 points
sneezing score after GCV treatment [2, 5]: 0 points
ARCT after GCV treatment [2, 6]: 20 points
VAS after GCV treatment [2, 6]: 4 cm
TNSS after GCV treatment ([2]; Case 2, GCV 500 mg/time twice a day, before 8): 4 points
ARCT after GCV then anti-allergic medicines [2, 7]: 25 points
TNSS after GCV then anti-allergic medicines [2, 7]: 1 point
VAS after GCV then anti-allergic medicines [2, 7]: 2 cm
rhinocleisis score after GCV then anti-allergic medicines [2, 7]: 1 point
rhinocnesmus score after GCV then anti-allergic medicines [2, 7]: 0 point
rhinorrhea score after GCV then anti-allergic medicines [2, 7]: 0 point
sneezing score after GCV then anti-allergic medicines [2, 7]: 0 point
rhinocleisis score after GCV treatment [2, 8]: 2 points
rhinocnesmus score after GCV treatment [2, 8]: 1 points
rhinorrhea score after GCV treatment [2, 8]: 3 points
sneezing score after GCV treatment [2, 8]: 3 points
ARCT after GCV treatment ([2]; Case 3, GCV 250 mg/time twice a day, before 5): 22 points
VAS after GCV treatment ([2]; Case 3, GCV 250 mg/time twice a day, before 10): 5 cm
TNSS after GCV treatment ([2]; Case 3, GCV 250 mg/time twice a day, before 12): 9 points
ARCT after GCV then routine anti-allergic medicines ([2]; Case 3, GCV 14 days): 25 points
TNSS after GCV then routine anti-allergic medicines ([2]; Case 3, GCV 14 days): 3 points
VAS after GCV then routine anti-allergic medicines ([2]; Case 3, GCV 14 days): 2.5 cm
rhinocleisis score after GCV then routine anti-allergic medicines ([2]; Case 3, GCV 14 days): 1 point
rhinocnesmus score after GCV then routine anti-allergic medicines ([2]; Case 3, GCV 14 days): 0 point
rhinorrhea score after GCV then routine anti-allergic medicines ([2]; Case 3, GCV 14 days): 1 point
sneezing score after GCV then routine anti-allergic medicines ([2]; Case 3, GCV 14 days): 1 point
ARCT after GCV treatment ([2]; Case 4, GCV 500 mg/time twice a day): 24 points
rhinocnesmus score after GCV treatment [2, 9]: 0 point
sneezing score after GCV treatment [2, 9]: 0 point
rhinorrhea score after GCV treatment ([2]; Case 4, GCV 500 mg/time twice a day, before 2): 1 point
rhinocleisis score after GCV treatment ([2]; Case 4, GCV 500 mg/time twice a day, before 3): 1 point
TNSS after GCV treatment ([2]; Case 4, GCV 500 mg/time twice a day, before 7): 2 points
VAS after GCV treatment ([2]; Case 4, GCV 500 mg/time twice a day, before 9): 1.5 cm
nasal symptoms after GCV then nasal spray hormone ([2]; Case 4, GCV 14 days, then 7 days of the nasal spray hormone): disappear completely
rhinocnesmus score after GCV treatment ([2]; Case 5, GCV 500 mg/time twice a day, before 0): 0 point
rhinorrhea score after GCV treatment ([2]; Case 5, GCV 500 mg/time twice a day, before 1): 1 point
rhinocleisis score after GCV treatment [2, 10]: 1 point
sneezing score after GCV treatment [2, 10]: 0 point
ARCT after GCV treatment ([2]; Case 5, GCV 500 mg/time twice a day, before 5): 24 points
TNSS after GCV treatment ([2]; Case 5, GCV 500 mg/time twice a day, before 7): 2 points
VAS after GCV treatment ([2]; Case 5, GCV 500 mg/time twice a day, before 10): 2.2 cm
nasal symptom (rhinocleisis, rhinocnesmus, sneezing, rhinorrhea) scores before and after GCV treatment (FIG. 2) ([2]; GCV effective group): significantly improved
ARCT, VAS and TNSS scores during diagnosis and treatment (FIGS. 1A-1C) ([2]; GCV effective group n=26, after 2 weeks GCV): significantly ameliorates the nasal symptoms
nasal symptoms after re-treatment with previously ineffective anti-allergic medicines following GCV ([2]; n=15 with TNSS≥4 or VAS≥3 cm after 2 weeks GCV, then anti-allergic medicines 2 weeks): could further reduce the nasal symptoms
intractable AR patients ineffective after the GCV treatment ([2]; oral GCV 2 weeks, 14/40, ineffective = ARCT<20): 35%
genes down-regulated after GCV treatment (nasal scraping cells; [11]): 160 genes
genes up-regulated after GCV treatment (nasal scraping cells; [11]): 25 genes
CXCL9 expression after GCV treatment (nasal scraping cells; [12]): up-regulated
CXCL10 expression after GCV treatment (nasal scraping cells; [12]): up-regulated
MUC5B expression after GCV treatment (nasal scraping cells; [12]): down-regulated

— patent US20240277717A1, “APPLICATION OF GANCICLOVIR IN PREPAPRATION OF MEDICINE FOR TREATING ALLERGIC RHINITIS” (Union Hospital, Tongji Medical College, Huazhong University …, priority 2023, published 2024)
